Each structure is given as a SMILES string. Activity calls are given as the source filed them.

Assay type in all cases: functional
Assay [1] concerns the target Serine/threonine-protein kinase MRCK alpha (Homo sapiens, UniProt Q5VT25).
Assay [2] concerns the target Calcium/calmodulin-dependent protein kinase type 1 (Homo sapiens, UniProt Q14012).
Assay [3] addresses Inhibitor of nuclear factor kappa-B kinase subunit beta (Homo sapiens, UniProt O14920).
The target in assay [4] is Ribosomal protein S6 kinase alpha-3 (Homo sapiens, UniProt P51812).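 Further: measured within a kinome-wide profiling panel.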
Assay [5] addresses cAMP-dependent protein kinase catalytic subunit alpha (Homo sapiens, UniProt P17612).
For assay [6], the target named is 5'-AMP-activated protein kinase catalytic subunit alpha-1 (Homo sapiens, UniProt Q13131).
The target of assay [7] is Casein kinase II subunit alpha (Homo sapiens, UniProt P68400).
Casein kinase II subunit alpha, sequence (P68400 whole entry): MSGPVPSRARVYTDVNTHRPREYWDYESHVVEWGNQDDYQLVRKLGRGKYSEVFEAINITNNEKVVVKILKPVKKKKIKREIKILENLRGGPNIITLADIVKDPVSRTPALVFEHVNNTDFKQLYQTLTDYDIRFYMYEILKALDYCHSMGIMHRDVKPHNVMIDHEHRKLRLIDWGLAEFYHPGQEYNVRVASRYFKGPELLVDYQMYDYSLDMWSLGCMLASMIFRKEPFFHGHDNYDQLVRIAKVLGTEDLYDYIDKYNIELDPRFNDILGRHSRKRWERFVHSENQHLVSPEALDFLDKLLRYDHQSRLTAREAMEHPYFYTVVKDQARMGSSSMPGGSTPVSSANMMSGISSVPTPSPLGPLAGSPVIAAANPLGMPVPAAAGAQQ

Calcium/calmodulin-dependent protein kinase type 1, sequence (Q14012 whole entry): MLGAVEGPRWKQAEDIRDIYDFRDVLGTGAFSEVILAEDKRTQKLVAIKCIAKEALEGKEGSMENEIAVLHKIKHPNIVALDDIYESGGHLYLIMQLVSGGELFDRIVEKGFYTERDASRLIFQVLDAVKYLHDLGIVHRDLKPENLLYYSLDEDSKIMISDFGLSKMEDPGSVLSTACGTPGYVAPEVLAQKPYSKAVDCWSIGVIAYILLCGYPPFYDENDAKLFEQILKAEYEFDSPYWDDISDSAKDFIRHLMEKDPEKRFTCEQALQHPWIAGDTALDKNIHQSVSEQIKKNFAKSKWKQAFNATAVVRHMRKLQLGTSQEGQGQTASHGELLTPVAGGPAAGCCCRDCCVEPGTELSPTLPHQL
Ribosomal protein S6 kinase alpha-3, sequence (P51812 whole entry): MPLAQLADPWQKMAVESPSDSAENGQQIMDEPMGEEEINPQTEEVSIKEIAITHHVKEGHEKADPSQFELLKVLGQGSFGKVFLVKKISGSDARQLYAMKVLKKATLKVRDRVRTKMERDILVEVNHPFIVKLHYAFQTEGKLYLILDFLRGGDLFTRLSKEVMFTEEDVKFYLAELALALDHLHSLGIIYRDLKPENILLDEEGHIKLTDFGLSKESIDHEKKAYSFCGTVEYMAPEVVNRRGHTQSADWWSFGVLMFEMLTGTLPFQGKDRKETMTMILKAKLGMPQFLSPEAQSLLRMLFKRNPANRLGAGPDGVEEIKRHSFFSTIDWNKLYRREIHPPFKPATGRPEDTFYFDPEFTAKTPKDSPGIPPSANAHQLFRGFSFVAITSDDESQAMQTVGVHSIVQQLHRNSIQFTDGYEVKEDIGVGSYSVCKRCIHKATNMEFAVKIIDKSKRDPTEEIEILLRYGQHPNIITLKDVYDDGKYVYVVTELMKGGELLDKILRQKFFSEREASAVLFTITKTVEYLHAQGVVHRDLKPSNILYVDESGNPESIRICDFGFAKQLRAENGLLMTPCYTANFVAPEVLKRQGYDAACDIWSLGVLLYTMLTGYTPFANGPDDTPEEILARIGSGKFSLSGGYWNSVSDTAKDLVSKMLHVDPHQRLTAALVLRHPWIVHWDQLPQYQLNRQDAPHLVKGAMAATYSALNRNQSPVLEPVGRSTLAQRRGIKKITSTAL
Serine/threonine-protein kinase MRCK alpha, sequence (Q5VT25 whole entry): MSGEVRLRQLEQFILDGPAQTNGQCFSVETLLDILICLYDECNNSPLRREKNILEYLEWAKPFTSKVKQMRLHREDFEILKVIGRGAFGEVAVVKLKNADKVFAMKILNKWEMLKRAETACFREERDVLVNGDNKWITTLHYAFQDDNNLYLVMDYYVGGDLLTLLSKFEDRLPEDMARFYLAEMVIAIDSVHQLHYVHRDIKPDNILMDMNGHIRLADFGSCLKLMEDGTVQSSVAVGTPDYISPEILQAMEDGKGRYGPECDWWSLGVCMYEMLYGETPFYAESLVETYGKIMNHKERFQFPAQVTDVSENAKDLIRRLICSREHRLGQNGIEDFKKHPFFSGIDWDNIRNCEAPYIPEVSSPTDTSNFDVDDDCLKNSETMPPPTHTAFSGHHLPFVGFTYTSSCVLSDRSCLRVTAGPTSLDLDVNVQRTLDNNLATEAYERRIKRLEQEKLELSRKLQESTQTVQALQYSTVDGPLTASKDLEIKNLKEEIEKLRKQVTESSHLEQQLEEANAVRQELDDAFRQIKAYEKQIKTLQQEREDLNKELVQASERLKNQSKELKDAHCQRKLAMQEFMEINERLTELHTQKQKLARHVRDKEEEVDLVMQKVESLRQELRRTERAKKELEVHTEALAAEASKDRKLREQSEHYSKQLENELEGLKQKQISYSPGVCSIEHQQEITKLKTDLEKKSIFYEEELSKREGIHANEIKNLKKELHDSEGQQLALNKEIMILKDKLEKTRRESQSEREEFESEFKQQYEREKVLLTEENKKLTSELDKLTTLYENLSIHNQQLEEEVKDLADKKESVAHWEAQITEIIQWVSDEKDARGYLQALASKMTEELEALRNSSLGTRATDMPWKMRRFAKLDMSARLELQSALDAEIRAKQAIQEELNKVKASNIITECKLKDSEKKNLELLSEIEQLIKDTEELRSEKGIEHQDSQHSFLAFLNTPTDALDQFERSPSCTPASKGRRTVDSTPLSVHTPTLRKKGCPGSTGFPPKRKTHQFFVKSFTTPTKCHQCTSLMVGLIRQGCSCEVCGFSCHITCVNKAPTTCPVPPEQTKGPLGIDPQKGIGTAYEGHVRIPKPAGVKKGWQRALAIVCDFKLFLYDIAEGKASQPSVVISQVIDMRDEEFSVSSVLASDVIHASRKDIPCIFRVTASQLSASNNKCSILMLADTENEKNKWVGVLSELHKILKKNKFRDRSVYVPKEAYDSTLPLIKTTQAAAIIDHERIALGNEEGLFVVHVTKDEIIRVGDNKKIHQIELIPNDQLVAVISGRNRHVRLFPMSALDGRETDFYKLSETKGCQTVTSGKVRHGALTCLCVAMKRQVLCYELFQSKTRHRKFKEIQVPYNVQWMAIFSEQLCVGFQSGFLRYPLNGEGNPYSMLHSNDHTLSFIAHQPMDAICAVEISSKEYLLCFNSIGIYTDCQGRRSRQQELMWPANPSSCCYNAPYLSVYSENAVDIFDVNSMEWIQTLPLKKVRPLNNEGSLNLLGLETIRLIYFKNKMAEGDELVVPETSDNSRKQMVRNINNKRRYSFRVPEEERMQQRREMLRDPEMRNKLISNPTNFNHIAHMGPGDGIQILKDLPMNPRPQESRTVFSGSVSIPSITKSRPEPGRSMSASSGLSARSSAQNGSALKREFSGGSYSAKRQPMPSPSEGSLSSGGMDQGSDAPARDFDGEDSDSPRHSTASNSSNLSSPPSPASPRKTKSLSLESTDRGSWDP
Inhibitor of nuclear factor kappa-B kinase subunit beta, sequence (O14920 whole entry): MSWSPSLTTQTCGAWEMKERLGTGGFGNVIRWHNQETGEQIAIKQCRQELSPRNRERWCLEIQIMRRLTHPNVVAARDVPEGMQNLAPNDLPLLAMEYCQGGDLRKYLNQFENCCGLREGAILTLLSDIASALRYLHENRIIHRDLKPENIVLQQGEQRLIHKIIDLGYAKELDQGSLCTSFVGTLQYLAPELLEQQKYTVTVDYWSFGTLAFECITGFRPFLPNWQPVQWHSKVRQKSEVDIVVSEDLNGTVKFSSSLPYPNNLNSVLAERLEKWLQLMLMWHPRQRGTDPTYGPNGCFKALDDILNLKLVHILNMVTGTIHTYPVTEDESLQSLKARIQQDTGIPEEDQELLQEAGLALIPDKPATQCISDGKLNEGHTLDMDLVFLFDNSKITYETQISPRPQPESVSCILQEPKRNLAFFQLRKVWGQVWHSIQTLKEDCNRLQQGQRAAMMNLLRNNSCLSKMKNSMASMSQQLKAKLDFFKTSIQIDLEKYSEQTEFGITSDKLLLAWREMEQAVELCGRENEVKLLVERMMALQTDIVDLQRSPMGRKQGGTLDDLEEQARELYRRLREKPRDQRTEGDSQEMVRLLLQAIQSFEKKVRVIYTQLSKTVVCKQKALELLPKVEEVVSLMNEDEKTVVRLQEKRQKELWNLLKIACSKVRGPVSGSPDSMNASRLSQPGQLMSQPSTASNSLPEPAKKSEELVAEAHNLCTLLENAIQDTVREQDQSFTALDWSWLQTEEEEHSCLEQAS
5'-AMP-activated protein kinase catalytic subunit alpha-1, sequence (Q13131 whole entry): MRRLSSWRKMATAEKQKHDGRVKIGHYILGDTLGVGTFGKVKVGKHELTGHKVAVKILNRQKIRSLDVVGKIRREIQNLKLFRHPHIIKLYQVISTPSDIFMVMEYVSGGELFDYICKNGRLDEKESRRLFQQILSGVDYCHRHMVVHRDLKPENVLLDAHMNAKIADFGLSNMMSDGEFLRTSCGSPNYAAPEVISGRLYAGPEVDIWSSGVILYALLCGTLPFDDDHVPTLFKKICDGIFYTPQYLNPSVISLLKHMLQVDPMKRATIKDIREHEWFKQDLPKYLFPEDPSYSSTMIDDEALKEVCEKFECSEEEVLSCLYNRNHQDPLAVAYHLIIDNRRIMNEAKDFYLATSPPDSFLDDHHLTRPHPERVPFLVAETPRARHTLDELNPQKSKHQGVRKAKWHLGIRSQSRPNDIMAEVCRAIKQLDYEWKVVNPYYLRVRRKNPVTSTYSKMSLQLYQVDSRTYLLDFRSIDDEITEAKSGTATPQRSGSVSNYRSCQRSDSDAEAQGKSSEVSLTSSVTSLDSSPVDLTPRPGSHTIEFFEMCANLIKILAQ

A word on the Ki: it is a measure of affinity in units of concentration, obtained from inhibition or displacement. In the case of `NCCn1cc(-c2cc(-c3cc4ccccc4s3)c3[nH]ncc3c2)c2nc(N)ncc21`, the Ki in assay [1] was 3.16 µM (active); in assay [2] it was > 7.94 µM (inactive); in assay [3] it was 0.251 µM (active); in assay [4], 3.16 µM (active); in assay [5], 0.0501 µM (active); in assay [6] it was 0.398 µM (active). Also, the Ki in assay [7] was > 6.31 µM (inactive).

These data come from ChEMBL document CHEMBL1201862, “PubChem BioAssay data set” (2004).
